# Measurements published in article PMC6792352, “Limited Chemical Structural Diversity Found to Modulate Thyroid Hormone Receptor in the Tox21 Chemical Library” (Environmental Health Perspectives, 2019).
# Where a name gives a salt, the structure may show the parent alone.
# Assay: in vitro
# Details: rat, gh3-tre-luc cells
Compound,CC50 at 24 h (AC50 (uM) modified / 1000),also measured
C[N+](C)(C)CCCl [Chlormequat chloride],–,"CC50 at 24 h (AC50 (uM) modified / 1000, Tox21_110001=Tox21_200065, viability, 1 nM T3 present, 24 h): > 90 µM"
CCCCCCCCNC [N-Methyloctan-1-amine],> 90 µM,–
CCC(C)(C)c1ccc(O)cc1 [4-(2-Methylbutan-2-yl)phenol],> 90 µM,–
CCC(NC(C)C)C(O)c1ccc(O)c(O)c1 (stereo not shown) [Isoetharine mesylate],> 50 µM,–
C[C@H](O)C(=O)Nc1c(I)c(C(=O)NC(CO)CO)c(I)c(C(=O)NC(CO)CO)c1I [Iopamidol],> 20 µM,–
COC(=O)[C@H]1[C@H]2C[C@@H]3c4[nH]c5cc(OC)ccc5c4CCN3C[C@H]2C[C@H](OC)[C@@H]1OC [Metoserpate hydrochloride],> 50 µM,–
CSc1nnc(C(C)(C)C)c(=O)n1N [Metribuzin],> 90 µM,–
CCCC=NO [Butanal oxime],–,"CC50 at 24 h (AC50 (uM) modified / 1000, Tox21_110001=Tox21_201786, viability, 1 nM T3 present, 24 h): > 90 µM"
"CCCCCCCCCCCC(=O)N(CC)CC [N,N-Diethyldodecanamide]",> 90 µM,–
C=CCC1=C(C)C(OC(=O)[C@@H]2[C@@H](C=C(C)C)C2(C)C)CC1=O (stereo partly shown) [Allethrin],53.2 µM,–
NC1=NC(=O)C(c2ccccc2)O1 (stereo not shown) [Pemoline],–,"CC50 at 24 h (AC50 (uM) modified / 1000, Tox21_110001=Tox21_112509, viability, 1 nM T3 present, 24 h): > 50 µM"
"Cl[C@H]1[C@H](Cl)[C@@H](Cl)[C@@H](Cl)[C@H](Cl)[C@H]1Cl [1,2,3,4,5,6-Hexachlorocyclohexane]",45.8 µM,–
CNC[C@H](O)[C@@H](O)[C@H](O)[C@H](O)CO [Meglumine],> 90 µM,–
Cc1nc(Nc2ncc(C(=O)Nc3c(C)cccc3Cl)s2)cc(N2CCN(CCO)CC2)n1 [Dasatinib],15.8 µM,–
"COc1cc(CC(C)N)cc(OC)c1OC (stereo not shown) [3,4,5-Trimethoxyamphetamine hydrochloride]",> 100 µM,–
CCCCCCCCC(=O)OCC(C)OC(=O)CCCCCCCC (stereo not shown) [Propylene glycol dipelargonate],> 100 µM,–
CC(C)(C)NCC(O)c1cc(Cl)c(N)c(Cl)c1 (stereo not shown) [Clenbuterol],–,"CC50 at 24 h (AC50 (uM) modified / 1000, Tox21_110001=Tox21_112016, viability, 1 nM T3 present, 24 h): 31.8 µM"
OC[C@H]1O[C@@H](n2cnc3c(S)ncnc32)[C@H](O)[C@@H]1O [Thioinosine],> 50 µM,–
CC/C=C\CC1=C(C)CCC1=O [Jasmone],> 90 µM,–
"O=[N+]([O-])c1cc(Cl)c(Cl)c(Cl)c1 [3,4,5-Trichloronitrobenzene]",> 90 µM,–
CC(=O)OCC(=O)[C@@]1(O)CC[C@H]2[C@@H]3CCC4=CC(=O)CC[C@]4(C)[C@H]3C(=O)C[C@@]21C [Cortisone acetate],> 50 µM,–
CCCCC(C)(O)C/C=C/[C@H]1[C@H](O)CC(=O)[C@@H]1CCCCCCC(=O)OC (mixture of isomers) [Misoprostol],> 50 µM,–

Compound,CC50 at 24 h (AC50 (uM) modified / 1000),also measured
O=C(O)[C@H](O)c1ccccc1 [D-(-)-Mandelic acid],> 50 µM,–
CC/C=C\CCOC(=O)c1ccccc1 [(3Z)-Hex-3-en-1-yl benzoate],> 90 µM,–
CC(C)N(Cc1ccccc1)C(=O)C(C)(C)C [Butam],> 90 µM,–
CCC(=O)Nc1ccc(Cl)c(Cl)c1 [Propanil],> 90 µM,–
"NCCOCCN [2,2'-Oxybis(ethylamine)]",> 90 µM,–
CCCCCCCCCCCCCCCC [Hexadecane],> 90 µM,–
C=CCNC1=C2C[C@@H](C)C[C@H](OC)[C@H](O)[C@@H](C)/C=C(\C)[C@H](OC(N)=O)[C@@H](OC)/C=C\C=C(/C)C(=O)NC(=CC1=O)C2=O [Tanespimycin],> 50 µM,–
"CC(=O)c1c(C)cc(C(C)(C)C)cc1C [4'-tert-Butyl-2',6'-dimethylacetophenone]",> 90 µM,–
CCCNC(C)C(=O)Nc1ccccc1C (stereo not shown) [Prilocaine hydrochloride],> 50 µM,–
CCCC[P+](CCCC)(CCCC)CCCC [Tetrabutylphosphonium bromide],> 90 µM,–
C/C=C/CC#N [3-Pentenenitrile],> 90 µM,–
CNC(=O)C[C@@H](N)C(=O)N[C@@H](C(=O)N[C@@H]1C(=O)N2[C@@H]1SC(C)(C)[C@@H]2C(=O)O)c1ccc(O)cc1 [Aspoxicillin],> 50 µM,–
C[N+](C)(C)CC(=O)O [Betaine monohydrate],> 90 µM,–
CC(CCC(=O)O)C(=O)O (stereo not shown) [2-Methylpentanedioic acid],> 90 µM,–
CCCCC/C(=C\c1ccccc1)CO [alpha-Amylcinnamyl alcohol],46.6 µM,–
c1ccc2c(c1)oc1ccccc12 [Dibenzofuran],> 90 µM,–
CCCCOCCOC(=O)COc1nc(Cl)c(Cl)cc1Cl [Triclopyr butotyl],> 90 µM,–
CCCCCON=O [Pentyl nitrite],–,"CC50 at 24 h (AC50 (uM) modified / 1000, Tox21_110001=Tox21_202898, viability, 1 nM T3 present, 24 h): > 90 µM"
CC(=O)OCC(=O)[C@@]1(O)CC[C@H]2[C@@H]3C[C@H](C)C4=CC(=O)C=C[C@]4(C)[C@H]3[C@@H](O)C[C@@]21C [Methylprednisolone acetate],> 50 µM,–
CCCCNc1cc(C(=O)O)cc(S(N)(=O)=O)c1Oc1ccccc1 [Bumetanide],> 20 µM,–
"CCc1cnc(C(=O)O)c(C(=O)O)c1 [5-Ethyl-2,3-pyridinedicarboxylic acid]",> 100 µM,–
c1ccc2c(c1)Oc1ccccc1O2 [Dibenzo-p-dioxin],–,"CC50 at 24 h (AC50 (uM) modified / 1000, Tox21_110001=Tox21_202045, viability, 1 nM T3 present, 24 h): > 90 µM"

Compound,CC50 at 24 h (AC50 (uM) modified / 1000),also measured
O=P(O)(O)CN(CP(=O)(O)O)CP(=O)(O)O [Aminotrimethylene phosphonic acid],–,"CC50 at 24 h (AC50 (uM) modified / 1000, Tox21_110001=Tox21_202753, viability, 1 nM T3 present, 24 h): > 20 µM"
"CC=C(Cl)Cl [1,1-Dichloropropene]",> 90 µM,–
CCCCCCCCCCCCCCCC(=O)O[C@@H]1CC(C)=C(/C=C/C(C)=C/C=C/C(C)=C/C=C/C=C(C)/C=C/C=C(C)/C=C/C2=C(C)C[C@@H](OC(=O)CCCCCCCCCCCCCCC)CC2(C)C)C(C)(C)C1 [Physalien],> 50 µM,–
OC[C@@H](O)[C@@H](O)CO [Erythritol],> 90 µM,–
Nc1cc(Cl)cc(S(=O)(=O)O)c1O [6-Amino-4-chloro-1-phenol-2-sulfonic acid],> 90 µM,–
NCc1ccc(S(N)(=O)=O)cc1 [Mafenide hydrochloride],> 20 µM,–
COC(=O)CC#N [Methyl cyanoacetate],> 100 µM,–
CC(C)=CC1C(C(=O)OC(C#N)c2cccc(Oc3ccccc3)c2)C1(C)C (stereo not shown) [Cyphenothrin],> 90 µM,–
CC(C)(O)c1ccccc1 [2-Phenylpropan-2-ol],> 90 µM,–
COC(=O)C(C)Oc1ccc(Oc2ccc(Cl)cc2Cl)cc1 (stereo not shown) [Diclofop-methyl],> 90 µM,–
C/C(=C\c1csc(C)n1)[C@@H]1C[C@@H]2O[C@]2(C)CCC[C@H](C)[C@H](O)[C@@H](C)C(=O)C(C)(C)[C@@H](O)CC(=O)O1 [Epothilone B],0.00955 µM,–
CC(=O)C(C)O (stereo not shown) [Acetoin],> 90 µM,–
CCOC(=O)c1ccccc1C [Ethyl 2-methylbenzoate],> 90 µM,–
CC[C@H]1CN2CCc3cc(OC)c(OC)cc3[C@@H]2C[C@@H]1C[C@H]1NCCc2cc(OC)c(OC)cc21 [Emetine dihydrochloride],0.065 µM,–
CN(C)CCC(c1ccccc1)c1ccccn1 (stereo not shown) [Pheniramine maleate],> 90 µM,–
c1ccc2cc3c(cc2c1)-c1cccc2cccc-3c12 [Benzo(k)fluoranthene],–,"CC50 at 24 h (AC50 (uM) modified / 1000, Tox21_110001=Tox21_200721, viability, 1 nM T3 present, 24 h): > 90 µM"
C[C@]12CC[C@@H]3c4ccc(O)cc4CC[C@H]3[C@@H]1CCC2=O [Estrone],> 50 µM,–
ClCC1CO1 (stereo not shown) [Epichlorohydrin],> 90 µM,–
CC1(C(=O)Nc2ccc(O)c(Cl)c2Cl)CCCCC1 [Fenhexamid],76.7 µM,–
CC(C)C/C=C(/C=O)c1ccccc1 [5-Methyl-2-phenyl-2-hexenal],64.6 µM,–
